Measured values as given in patent US9107415B2, “2-(substituted-phenyl)-cyclopentane-1,3-dione compounds, and derivatives thereof” (Syngenta Limited, priority 2011, dated 2015).

Columns and labels:
[1] = tested on: Echinochloa crus-galli (ECHCG); test: Biological Example 1 glasshouse screen, pre-emergence herbicidal activity; format: in vivo; conditions: 312 h, application rate 250 g/ha, evaluated after 13 days, read-out: ECHCG percentage phytotoxicity
Method in brief: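 Potted test species received a foliar or soil spray of active ingredient in acetone/water (50:50), 0.5% Tween 20, at 1 or 8 days after sowing for pre- and post-emergence respectively. Percentage phytotoxicity was assessed by eye after 13 days.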

[2] = tested on: Alopecurus myosuroides (ALOMY); test: Biological Example 4B (not-previously-formulated compounds) post-emergence herbicidal activity on grassy weeds; format: in vivo; conditions: 14 DAA, technical compound in IF50 + Adigor, mean of two
Procedure: (§1) Seeds of a variety of test species are sown in standard soil in pots. After cultivation for 14 days under controlled conditions in a glasshouse (at 22/16°C., day/night; 16 hours light; 65% humidity), the plants are sprayed with an aqueous spray solution derived from the formulation of the technical active ingredient dissolved in acetone plus IF50 containing
(§2) 10.56 wt % Emulsogen™EL (castor oil ethoxylate, CAS Registry number 61791-12-6)
(§3) 42.22 wt % N-Methyl pyrrolidone
(§4) 42.22 wt % dipropylene glycol monoethyl ether
(§5) at a 1:20 ratio of (technical active ingredient:IF50). The adjuvant Adigor™(an adjuvant containing inter alia methylated rapeseed oil, e.g. available from Syngenta) is added to form a 0.5% v/v solution. The test plants are then grown on under controlled conditions in the glasshouse (at 22/16°C., day/night; 16 hours light; 65% humidity) and are watered twice daily. After 14 days the test is evaluated (100%=total damage to plant; 0%=no damage to plant).
(§6) […] Herbicidal activity (phytotoxicity) is evaluated visually, and an assessed percentage phytotoxicity score is given for each herbicidal application on each plant species (with 100%=total damage to plant; 0%=no damage to plant). Two repetitions are made for each experiment, and the mean herbicidal activity (phytotoxicity) data is reported.
(§7) Test plants: Avena fatua (AVEFA), Lolium multiflorum (LOLMU), Setaria viridis (SETVI), Poa annua (POAAN), Alopecurus myosuroides (ALOMY). All five of these are grassy monocotyledonous weeds.

[3] = tested on: Avena fatua (AVEFA); test: as above; format: in vivo; conditions: 14 DAA, technical compound in IF50 + Adigor, mean of two
Procedure: as §1, §2, §3, §4, §5, §6, §7

[4] = tested on: Poa annua (POAAN); test: as above; format: in vivo; conditions: 14 DAA, technical compound in IF50 + Adigor, mean of two
Procedure: as §1, §2, §3, §4, §5, §6, §7

[5] = tested on: Setaria viridis (SETVI); test: as above; format: in vivo; conditions: 14 DAA, technical compound in IF50 + Adigor, mean of two
Procedure: as §1, §2, §3, §4, §5, §6, §7

[6] = Biological Example 5B “RASP” soil persistence method; conditions: 18 Acres soil
Procedure: Field soil (of the type “18 Acres”, as described in Biological Example 5A and Table 5.1 above) is sieved to 2 mm. The sieved soil is wetted up with distilled water, mixing thoroughly until it reaches “field capacity”. […] Usually, the moisture content of the soil used is about 25%.
For each compound tested, 6×50 mL polypropylene centrifuge tubes containing 10 g±0.5 g of soil at field capacity are used. Each tube lid has a 2 mm hole to allow for air circulation during the incubation period.
4×10 microliters of treatment solutions of the compounds to be tested are applied to the surface of the soil in groups of 6 tubes. 4×10 microliter drops are also dispensed into the treatment check vials and these are diluted to 1 mL with acetonitrile; at this point additional samples can be prepared for HPLC method development if required.
Two of the tubes containing the treated soil are capped and immediately frozen as T0 (day zero) samples. The remaining four samples are capped with lids containing a 2 mm hole drilled into the lid and incubated in controlled environment cabinets for the correct time interval at 20°C., 80% relative humidity.
After both one and four weeks incubation, two tubes from each treatment are removed from the cabinets, the lids are replaced for ones lacking ventilation holes and the tubes are frozen. When the samples are ready for analysis, a zero time, 1 week and 4 week sample for each compound is removed from the freezer and allowed to thaw. Immediately after thawing, 40 mL of extraction solution is added to the samples.
Samples are extracted using a mixture such as 80:20 (v/v) acetonitrile/1 M ammonium hydroxide solution. […]
All samples from the test are analysed by UPLC-MS. […]
For each compound, the molecular ion giving the best sensitivity is chosen and a single ion monitoring method is set up. The method development samples are re-analysed using the selected ion monitoring methods to check that suitable sensitivity is obtained.
Degradation kinetics, and an estimated half-life (T½) of the compound in the soil, can then be calculated using simple first order assumptions.

[7] = tested on: Spring Barley “Harrington”; test: Biological Example 4B post-emergence phytotoxicity on cereal crops; format: in vivo; conditions: 15 g/ha, cloquintocet-mexyl 50 g/ha, 14 DAA, technical compound in IF50 + Adigor, mean of two
[8] = 30 g/ha, cloquintocet-mexyl 50 g/ha
[9] = 60 g/ha, cloquintocet-mexyl 0 g/ha
[10] = 60 g/ha, cloquintocet-mexyl 50 g/ha
[11] = 15 g/ha, cloquintocet-mexyl 50 g/ha

For `CC#Cc1cc(C)c(C2=C(O)CC(Cc3ccc(C)cn3)C2=O)c(C)c1` (stereo not drawn) [Compound A-8], which pest or weed control at 250 g/ha [1] is on record?
The pest or weed control at 250 g/ha was 100%.

What about the ALOMY % phytotoxicity [2, 8] of the same compound?
Its ALOMY % phytotoxicity is 63%.

And the ALOMY % phytotoxicity [2, 9]?
Its ALOMY % phytotoxicity is 94%.

And the ALOMY % phytotoxicity [2, 10]?
The ALOMY % phytotoxicity was 94%.

And the AVEFA % phytotoxicity [3, 8]?
Its AVEFA % phytotoxicity is 45%.

What about the AVEFA % phytotoxicity [3, 9] of the same compound?
The AVEFA % phytotoxicity was 97%.

And the AVEFA % phytotoxicity [3, 10]?
The AVEFA % phytotoxicity was 95%.

What about the POAAN % phytotoxicity [4, 8] of the same compound?
Its POAAN % phytotoxicity is 65%.

What about the POAAN % phytotoxicity [4, 9] of the same compound?
Its POAAN % phytotoxicity is 80%.

What about the POAAN % phytotoxicity [4, 10] of the same compound?
Its POAAN % phytotoxicity is 75%.

And the SETVI % phytotoxicity [5, 8]?
The SETVI % phytotoxicity was 55%.

And the SETVI % phytotoxicity [5, 9]?
Its SETVI % phytotoxicity is 75%.

And the SETVI % phytotoxicity [5, 10]?
Its SETVI % phytotoxicity is 75%.

Which results are given for `CC#Cc1cc(C)c(C2=C(O)CC(Cc3ccc(F)cn3)C2=O)c(C)c1` (stereo not drawn) [Compound A-11]?
pest or weed control at 250 g/ha [1]: 100%; ALOMY % phytotoxicity [2, 8]: 73%; ALOMY % phytotoxicity [2, 9]: 85%; ALOMY % phytotoxicity [2, 10]: 85%; AVEFA % phytotoxicity [3, 8]: 50%; AVEFA % phytotoxicity [3, 9]: 93%; AVEFA % phytotoxicity [3, 10]: 88%; POAAN % phytotoxicity [4, 8]: 70%; POAAN % phytotoxicity [4, 9]: 75%; POAAN % phytotoxicity [4, 10]: 75%; SETVI % phytotoxicity [5, 8]: 89%; SETVI % phytotoxicity [5, 9]: 98%; SETVI % phytotoxicity [5, 10]: 97%

Which results are given for `CC#Cc1cc(C)c(C2=C(O)CC(Cc3ccc(C#N)cn3)C2=O)c(C)c1` (stereo not drawn) [Compound A-14]?
pest or weed control at 250 g/ha [1]: 90%; ALOMY % phytotoxicity [2, 8]: 78%; ALOMY % phytotoxicity [2, 9]: 97%; ALOMY % phytotoxicity [2, 10]: 97%; AVEFA % phytotoxicity [3, 8]: 38%; AVEFA % phytotoxicity [3, 9]: 83%; AVEFA % phytotoxicity [3, 10]: 80%; POAAN % phytotoxicity [4, 8]: 83%; POAAN % phytotoxicity [4, 9]: 85%; POAAN % phytotoxicity [4, 10]: 85%; SETVI % phytotoxicity [5, 8]: 99%; SETVI % phytotoxicity [5, 9]: 100%; SETVI % phytotoxicity [5, 10]: 100%

What does the source list for `CC#Cc1cc(C)c(C2C(=O)CC(Cc3ccn(C)n3)C2=O)c(C)c1` (stereo not drawn) [Compound A-19]?
pest or weed control at 250 g/ha [1]: 100%; ALOMY % phytotoxicity [2, 11]: 99%; ALOMY % phytotoxicity [2, 8]: 100%; ALOMY % phytotoxicity [2, 9]: 100%; ALOMY % phytotoxicity [2, 10]: 100%; AVEFA % phytotoxicity [3, 11]: 88%; AVEFA % phytotoxicity [3, 8]: 90%; AVEFA % phytotoxicity [3, 9]: 99%; AVEFA % phytotoxicity [3, 10]: 99%; POAAN % phytotoxicity [4, 11]: 75%; POAAN % phytotoxicity [4, 8]: 80%; POAAN % phytotoxicity [4, 9]: 92%; POAAN % phytotoxicity [4, 10]: 92%; SETVI % phytotoxicity [5, 11]: 99%; SETVI % phytotoxicity [5, 8]: 100%; SETVI % phytotoxicity [5, 9]: 100%; SETVI % phytotoxicity [5, 10]: 100%; RASP Test: % of compound remaining at 0 weeks ([6]; 0 weeks): 80%; RASP Test: % of compound remaining at 1 week ([6]; 1 week incubation at 20°C): 79%; RASP Test: % of compound remaining at 4 weeks ([6]; 4 weeks incubation at 20°C): 80%; Spring Barley “Harrington” phytotoxicity (%) [7]: 3%
